In ChEMBL document CHEMBL1127805 (J Med Chem, 1994):
Each block holds one molecule with its values, some of them ahead of it.

Experiments:
[1] = Compound was evaluated for harmaline-induced cGMP seizure in vivo through ip route; type: functional
[2] = target: Glutamate NMDA receptor; experiment: In vitro inhibition of [3H]glycine at NMDA receptor; type: protein-complex assay
[3] = test system: Mus musculus; experiment: In vivo antagonist activity against seizures elicited by audiogenic, administered intra peritoneally in mice; type: functional
[4] = test system: Mus musculus; experiment: In vivo antagonist activity against seizures elicited by audiogenic, administered perorally in mice; type: functional; settings: po
[5] = target: Glutamate NMDA receptor; experiment: Compound was evaluated for in vitro inhibition of [3H]MK-801 at NMDA receptor; type: protein-complex assay
[6] = target: T1, Glutamate receptor ionotropic, NMDA 1 (Rattus norvegicus, UniProt P35439); experiment: Compound was evaluated for in vitro inhibition of cortical slice at NMDA receptor
[7] = test system: Gerbillinae; experiment: Compound was evaluated for neuroprotection, gerbil in vivo through ip route; type: functional
[8] = test system: Mus musculus; experiment: In vivo antagonist activity against seizures elicited by NMDLA in mice administered intravenously; type: functional; settings: iv
[9] = test system: Mus musculus; experiment: In vivo antagonist activity against seizures elicited by audiogenic administered intra peritoneally in mice; type: functional
[10] = test system: Mus musculus; experiment: In vivo antagonist activity against seizures elicited by NMDA in mice administered perorally; type: functional; settings: po
[11] = test system: Mus musculus; experiment: Antagonist activity in electroshock model in vivo through intravenous route; type: functional
[12] = test system: Mus musculus; experiment: Antagonist activity in PTZ seizure model in vivo through intravenous route; type: functional
[13] = target: T1, Glutamate receptor ionotropic, NMDA 1; experiment: Compound was evaluated for in vitro inhibition of cortical neuron at NMDA receptor
[14] = test system: Rattus norvegicus; experiment: Antagonist activity for neuroprotection, in rat MCAO in vivo through intravenous bolus+infusion route
[15] = test system: Mus musculus; experiment: Compound was evaluated for passive avoidance in vivo through intraperitoneal route; type: functional; settings: ip
[16] = test system: Mus musculus; experiment: Compound was evaluated for elevation of cGMP in vivo through subcutaneous route; type: functional; settings: sc
[17] = test system: Mus musculus; experiment: Antagonist activity in audiogenic seizure model in vivo through icv route; type: functional
[18] = test system: Mus musculus; experiment: In vivo antagonist activity against seizures elicited by audiogenic administered icv in mice; type: functional
[19] = test system: Mus musculus; experiment: Antagonist activity in electroshock in vivo through intravenous route; type: functional
[20] = test system: Mus musculus; experiment: Compound was evaluated for audiogenic seizure in vivo through intra peritoneal route; type: functional
[21] = test system: Gerbillinae; experiment: Compound was evaluated for neuroprotection, in gerbil seizure model in vivo through intraperitoneal route; type: functional
[22] = target: Glutamate NMDA receptor; experiment: Compound was evaluated for in vitro inhibition of [3H]-MK-801 at NMDA receptor.; type: protein-complex assay
[23] = test system: Mus musculus; experiment: In vivo antagonist activity against seizures elicited by NMDLA in mice administered intraperitoneally; type: functional; settings: ip
[24] = test system: Mus musculus; experiment: Antagonist activity in PCP hyperactivity seizure model in vivo through subcutaneous route; type: functional; settings: sc
[25] = test system: Mus musculus; experiment: Antagonist activity in amphetamine hyperactivity seizure model in vivo through intraperitoneal route; type: functional; settings: ip
[26] = target: T1, Glutamate receptor ionotropic, NMDA 1; experiment: Compound was evaluated for in vitro inhibition of [3H]L-689,560 at NMDA receptor.
[27] = target: T2, Glutamate receptor ionotropic, NMDA 2C (Rattus norvegicus, UniProt Q00961); experiment: Compound was evaluated for in vitro inhibition of cortical slice release at NMDA receptor.
[28] = target: T2, Glutamate receptor ionotropic, NMDA 2C; experiment: Compound was evaluated for in vitro inhibition of [3H]-GABA release at NMDA receptor.
[29] = target: T1, Glutamate receptor ionotropic, NMDA 1; experiment: Compound was evaluated for in vitro inhibition of oocytes at NMDA receptor.; type: cell-based, frog; settings: oocyte
[30] = test system: Mus musculus; experiment: In vivo antagonist activity against seizures elicited by NMDA in mice administered intraperitoneally; type: functional; settings: ip
[31] = test system: Mus musculus; experiment: Antagonist activity in forced swim model, in vivo through intraperitoneal route; type: functional; settings: ip
[32] = test system: Mus musculus; experiment: Antagonist activity in plus-maze in vivo through intraperitoneal route; type: functional; settings: ip
[33] = test system: Mus musculus; experiment: Separation-induced vocalization in vivo through ip route; type: functional
[34] = test system: Rattus norvegicus; experiment: Compound was evaluated for D-Ser-induced cGMP in vivo through ip route; type: functional
[35] = test system: Mus musculus; experiment: Compound was evaluated for nociception in electroshock mice model in vivo through ip route; type: functional
[36] = target: Glutamate NMDA receptor; experiment: Compound was evaluated for in vitro inhibition of [3H]TCP at NMDA receptor; type: protein-complex assay
[37] = target: T1, Glutamate receptor ionotropic, NMDA 1; experiment: Compound was evaluated for in vitro inhibition of spinal cord at NMDA receptor.
[38] = target: Glutamate [NMDA] receptor; experiment: Compound was evaluated for in vitro inhibition of myenteric plexus, guinea pig at NMDA receptor; type: protein-complex assay, Cavia porcellus
[39] = test system: Rattus norvegicus; experiment: Compound was evaluated for neuroprotection, rat MCAO in vivo through iv route; type: functional
[40] = target: T1, Glutamate receptor ionotropic, NMDA 1; experiment: Compound was evaluated for in vitro inhibition of cGMP cerebellar slice at NMDA receptor.

T2 sequence (Q00961 whole entry): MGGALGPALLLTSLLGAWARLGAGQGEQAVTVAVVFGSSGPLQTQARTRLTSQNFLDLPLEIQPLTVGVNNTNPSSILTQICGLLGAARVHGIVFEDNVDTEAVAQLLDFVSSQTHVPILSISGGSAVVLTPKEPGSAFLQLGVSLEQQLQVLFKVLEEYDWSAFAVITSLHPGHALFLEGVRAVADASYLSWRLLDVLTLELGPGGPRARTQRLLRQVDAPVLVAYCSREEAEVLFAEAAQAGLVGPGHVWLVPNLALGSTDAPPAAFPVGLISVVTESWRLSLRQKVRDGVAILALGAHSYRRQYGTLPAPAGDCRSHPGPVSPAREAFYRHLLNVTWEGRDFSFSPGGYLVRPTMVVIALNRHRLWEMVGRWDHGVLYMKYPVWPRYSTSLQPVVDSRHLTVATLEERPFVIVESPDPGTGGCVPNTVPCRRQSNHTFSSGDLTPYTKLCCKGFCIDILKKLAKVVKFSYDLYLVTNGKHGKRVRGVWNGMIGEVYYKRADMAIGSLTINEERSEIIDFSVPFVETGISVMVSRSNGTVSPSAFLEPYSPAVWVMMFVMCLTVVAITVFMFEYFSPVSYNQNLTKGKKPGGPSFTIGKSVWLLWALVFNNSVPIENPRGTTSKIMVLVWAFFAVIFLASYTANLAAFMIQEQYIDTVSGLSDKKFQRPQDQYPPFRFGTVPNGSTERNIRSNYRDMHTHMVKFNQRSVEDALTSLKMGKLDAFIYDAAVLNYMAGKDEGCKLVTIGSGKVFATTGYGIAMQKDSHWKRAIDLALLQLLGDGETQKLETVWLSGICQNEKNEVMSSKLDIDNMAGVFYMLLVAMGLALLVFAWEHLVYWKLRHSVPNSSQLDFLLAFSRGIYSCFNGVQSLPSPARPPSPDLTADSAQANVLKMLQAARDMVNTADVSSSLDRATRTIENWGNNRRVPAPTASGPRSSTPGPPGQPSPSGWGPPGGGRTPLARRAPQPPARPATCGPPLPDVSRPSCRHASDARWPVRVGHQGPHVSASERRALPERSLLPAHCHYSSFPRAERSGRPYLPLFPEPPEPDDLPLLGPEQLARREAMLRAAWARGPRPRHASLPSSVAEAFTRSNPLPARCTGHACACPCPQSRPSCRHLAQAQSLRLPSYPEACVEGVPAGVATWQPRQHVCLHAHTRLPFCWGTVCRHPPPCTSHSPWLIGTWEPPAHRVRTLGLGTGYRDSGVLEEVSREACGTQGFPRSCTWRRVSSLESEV

SMILES: O=c1[nH]c2cc(Cl)ccc2c(O)c1-c1cccc(Oc2ccsc2)c1
ED50 [3]: 0.8 mg/kg
IC50 [2]: 1.4 nM
ED50 [4]: 0.9 mg/kg

SMILES: Oc1nc2cc(Cl)c(Cl)cc2n2ccnc12
IC50 [2]: 6000 nM

SMILES: O=c1[nH]c2cc(Cl)ccc2c(O)c1-c1cccc(Oc2ccccc2)c1
ED50 [3]: 0.9 mg/kg
ED50 [4]: 0.9 mg/kg

SMILES: O=c1[nH][nH]c(=O)c2c1[nH]c1cc(Cl)cc(Cl)c12
MED50 [7]: 10 mg/kg
IC50 [2]: 410 nM

SMILES: N[C@@H]1CONC1=O [CYCLOSERINE]
ED50 [15]: 3 mg/kg
ED50 [16]: 1.25 mg/kg

SMILES: O=C1C2CC(CCN2)N1O (configuration not stated)
Ki [13]: 3500 nM
IC50 [2]: 19000 nM

SMILES: N#Cc1cc2c(cc1[N+](=O)[O-])=NC(=O)C(=O)N=2
IC50 [2]: 4800 nM

SMILES: O=C(O)c1cc(=O)c2ccccc2[nH]1 [TRANSTORINE]
ED50 [9]: > 250 mg/kg
ED50 [17]: 20 nM

SMILES: NCc1ccc(CC(=O)N[C@H]2C[C@H](C(=O)O)Nc3cc(Cl)cc(Cl)c32)cc1
ED50 [18]: 3.5
ED50 [9]: 39 mg/kg

SMILES: O=C(NS(=O)(=O)c1ccccc1)c1nc2cc(Cl)c(Cl)cc2[nH]c1=O
ED50 [19]: > 100 mg/kg
IC50 [6]: 11000 nM
IC50 [2]: 120 nM

SMILES: CC(CN(C)C)OC(=O)c1cc(O)c2c(Cl)cc(Cl)cc2n1 (configuration not stated)
ED50 [20]: 62 mg/kg

SMILES: O=c1[nH][nH]c(=O)c2c(O)c3c(Cl)cc(Cl)cc3nc12
MED50 [21]: 10 mg/kg
IC50 [2]: 100 nM

SMILES: O=c1[nH]c2cc([N+](=O)[O-])c([N+](=O)[O-])cc2[nH]c1=O [DNQX]
IC50 [2]: 1300 nM

SMILES: O=[N+]([O-])c1cc([N+](=O)[O-])c2nc(O)c(O)nc2c1
IC50 [26]: 170 nM
IC50 [27]: 400 nM
IC50 [2]: 1000 nM
EC50 [28]: 400 nM

SMILES: O=c1cc(O)c2c(Cl)cc(Cl)cc2[nH]c1=O
IC50 [2]: 31 nM

SMILES: O=C(c1c(O)nc2cc(Cl)ccc2c1O)C1CC1
ED50 [9]: 4.1 mg/kg

SMILES: O=C(O)c1cc(O)c2c(Cl)cc(Cl)cc2n1
ED50 [9]: > 250 mg/kg
ED50 [17]: 7.5 nM
ED50 [33]: 67 mg/kg

SMILES: COC(=O)[C@H]1C[C@H](NC(=O)Cc2ccc(CN)cc2)c2c(Cl)cc(Cl)cc2N1
ED50 [9]: 32 mg/kg

SMILES: O=c1[nH]c2cc(Cl)c(Cl)c([N+](=O)[O-])c2[nH]c1=O [LICOSTINEL]
ED50 [35]: 5 mg/kg

SMILES: NCC(=O)Nn1ccc2ccccc21
EC50 [36]: 3600 nM
IC50 [36]: 780000 nM
IC50 [2]: 36000 nM

SMILES: Oc1ccc(-c2c(O)nc3cc(Cl)cc(Cl)c3c2O)cc1
IC50 [37]: 2100 nM
IC50 [2]: 11 nM

SMILES: NC(Cc1ccc(CC(=O)N[C@H]2C[C@H](C(=O)O)Nc3cc(Cl)cc(Cl)c32)cc1)C(=O)O (some centres not stated)
ED50 [18]: 0.5
ED50 [9]: 29 mg/kg

SMILES: CN(C(=O)c1ccccc1)c1c(C(=O)O)[nH]c2cc(Cl)ccc12
IC50 [2]: 110 nM

SMILES: NCc1ccc(NC(=O)CCc2c(C(=O)O)[nH]c3cc(Cl)cc(Cl)c23)cc1
IC50 [2]: 27 nM

Now from value to molecule, other results behind:

IC50 [2]: 630 nM
SMILES: CCOC(=O)Cc1c(C(=O)O)[nH]c2cc(Cl)ccc12
MED50 [1]: 100 mg/kg

EC50 [5]: 330 nM
IC50 [2]: 240 nM
SMILES: N[C@H](/C=C/CCO)C(=O)O

IC50 [2]: 460 nM
SMILES: O=C(O)c1nc2cc(Cl)c(Cl)cc2nc1O [6,7-DICHLORO-3-HYDROXY-2-QUINOXALINECARBOXYLIC ACID]

EC50 [6]: 140000 nM
SMILES: O=C(O)CSc1c(C(=O)O)[nH]c2cc(Cl)cc(Cl)c12

Ki [13]: 650 nM
IC50 [2]: 1400 nM
SMILES: C[C@@H]1CN(O)C(=O)[C@@H]1N
ED50 [8]: 20 mg/kg
ED50 [9]: 5.1 mg/kg
ED50 [10]: 44 mg/kg
ED50 [11]: 26 mg/kg
ED50 [12]: 13 mg/kg
ED50 [14]: 13.5 mg/kg

IC50 [2]: 800 nM
SMILES: O=C(O)c1nc2c(Cl)cc(Cl)cc2[nH]1

EC50 [5]: 930 nM
IC50 [2]: 750 nM
SMILES: N[C@@H](/C=C/CCO)C(=O)O

EC50 [22]: 140 nM
IC50 [2]: 40 nM
SMILES: NC1(C(=O)O)CC1 [1-Aminocyclopropane carboxylic acid]

Ki [13]: 2500 nM
IC50 [2]: 12500 nM
SMILES: N[C@@H]1CCN(O)C1=O
ED50 [23]: 890 mg/kg
ED50 [3]: 53 mg/kg
ED50 [24]: 30 mg/kg
ED50 [25]: 30 mg/kg

IC50 [2]: 110 nM
SMILES: O=C(O)Cn1c(=O)c(=O)[nH]c2cc(Cl)c(Cl)cc21

IC50 [29]: 18500 nM
IC50 [2]: 19000 nM
SMILES: NC1(C(=O)O)CCC1 [1-AMINOCYCLOBUTANE CARBOXYLIC ACID]

IC50 [2]: > 40000 nM
SMILES: COC(=O)C1(N)CC1
ED50 [30]: 46 mg/kg
ED50 [31]: 100 mg/kg
ED50 [32]: 200 mg/kg

IC50 [2]: 8 nM
SMILES: O=C(O)C1Nc2cc(Cl)cc(Cl)c2S(=O)(=O)N1Cc1cccc(Br)c1 (configuration not stated)

Ki [13]: 750 nM
IC50 [2]: 1300 nM
SMILES: N[C@H]1C(=O)N(O)C[C@H]1O

IC50 [2]: 960 nM
SMILES: O=C(O)Cc1c(C(=O)O)[nH]c2cc(Cl)ccc12
ED50 [34]: 5.4 µg
ED50 ([34]; Rattus norvegicus, ip, read-out: ED50): > 50 mg/kg

IC50 [2]: 7.8 nM
SMILES: O=C(Nc1ccccc1)N[C@H]1C[C@H](C(=O)O)Nc2cc(Cl)cc(Cl)c21
ED50 [9]: > 100 mg/kg

IC50 [38]: 5000 nM
IC50 [2]: 400 nM
SMILES: O=C(O)c1cc(S)c2ccc(Cl)cc2n1
ED50 [39]: 20 mg/kg

IC50 [40]: 2700 nM
SMILES: O=C(O)CCc1c(C(=O)O)[nH]c2cc(Cl)cc(Cl)c12
ED50 [18]: 0.09 µg
ED50 [9]: 100 mg/kg

IC50 [2]: 2.6 nM
SMILES: O=C(C[C@@H]1CCc2cc(Br)cc3[nH]c(=O)c(=O)n1c23)Nc1ccccc1
